Target: EGFR (human) (UniProt P00533)
Sequence (P00533 whole entry, looked up): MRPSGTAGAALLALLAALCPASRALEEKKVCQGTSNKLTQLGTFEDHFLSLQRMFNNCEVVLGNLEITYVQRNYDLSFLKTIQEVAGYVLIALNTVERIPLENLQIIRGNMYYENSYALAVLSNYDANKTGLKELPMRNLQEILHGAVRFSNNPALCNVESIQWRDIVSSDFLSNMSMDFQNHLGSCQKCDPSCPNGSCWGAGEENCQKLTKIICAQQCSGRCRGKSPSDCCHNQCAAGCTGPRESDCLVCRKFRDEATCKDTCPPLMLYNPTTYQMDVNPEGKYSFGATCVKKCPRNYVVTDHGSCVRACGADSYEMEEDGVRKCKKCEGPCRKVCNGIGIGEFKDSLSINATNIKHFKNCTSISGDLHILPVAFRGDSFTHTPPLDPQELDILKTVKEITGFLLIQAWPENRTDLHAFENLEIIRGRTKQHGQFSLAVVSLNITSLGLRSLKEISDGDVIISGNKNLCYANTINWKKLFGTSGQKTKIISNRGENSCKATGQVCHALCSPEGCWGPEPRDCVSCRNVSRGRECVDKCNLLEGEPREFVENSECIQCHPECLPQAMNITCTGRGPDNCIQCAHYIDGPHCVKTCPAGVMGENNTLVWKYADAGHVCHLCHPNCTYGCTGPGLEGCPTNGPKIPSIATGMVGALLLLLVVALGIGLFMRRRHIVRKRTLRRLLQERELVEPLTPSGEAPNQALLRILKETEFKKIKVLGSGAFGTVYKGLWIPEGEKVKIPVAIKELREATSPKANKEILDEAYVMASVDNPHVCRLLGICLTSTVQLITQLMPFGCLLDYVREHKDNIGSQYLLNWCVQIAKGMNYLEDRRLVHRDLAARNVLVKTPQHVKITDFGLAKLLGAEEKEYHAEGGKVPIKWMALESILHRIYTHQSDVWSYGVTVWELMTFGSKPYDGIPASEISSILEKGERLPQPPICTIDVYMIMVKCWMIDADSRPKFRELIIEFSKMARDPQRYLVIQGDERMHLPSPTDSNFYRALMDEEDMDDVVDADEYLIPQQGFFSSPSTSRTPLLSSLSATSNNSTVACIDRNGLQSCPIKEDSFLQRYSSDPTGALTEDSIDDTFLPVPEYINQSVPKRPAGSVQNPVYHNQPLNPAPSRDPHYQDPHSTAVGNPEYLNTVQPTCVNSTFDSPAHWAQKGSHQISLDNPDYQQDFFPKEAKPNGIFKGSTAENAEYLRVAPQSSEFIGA

SMILES	Ki
COc1ccc(CNc2ccnc3[nH]c4ccccc4c23)cc1	450 nM
c1ccc(CNc2ccnc3[nH]c4ccccc4c23)cc1	85 nM
c1ccc2c(CNc3ccnc4[nH]c5ccccc5c34)cccc2c1	360 nM
C[C@@H](Nc1ccnc2[nH]c3ccccc3c12)c1ccccc1	840 nM
C[C@H](Nc1ccnc2[nH]c3ccccc3c12)c1ccccc1	30 nM
Brc1ccc2[nH]c3nccc(NCc4ccccc4)c3c2c1	43 nM
Clc1ccc(CNc2ccnc3[nH]c4ccccc4c23)cc1	1040 nM
c1cncc(CNc2ccnc3[nH]c4ccccc4c23)c1	3830 nM
Clc1cccc(CNc2ccnc3[nH]c4ccccc4c23)c1	99 nM
c1ccc(CCNc2ccnc3[nH]c4ccccc4c23)cc1	1040 nM
